Laboratory results as given in PubChem BioAssay (NCI).
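Method: 48-hour compound exposure of cells in 96-well plates, five concentrations, linear interpolation of endpoints. TGI: total growth inhibition.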

How the values were obtained:
Experiment in all cases: DTP human tumour cell line panel, 48 h
[1] = tested on: A549 NSCLC
[2] = tested on: SW-620 colon
[3] = tested on: MCF7 breast
[4] = tested on: HCC-2998 colon
[5] = tested on: MDA-MB-231 breast
[6] = tested on: LOX IMVI melanoma
[7] = tested on: SK-MEL-2 melanoma
[8] = tested on: SK-MEL-28 melanoma
[9] = tested on: IGROV1 ovarian
[10] = tested on: HS 578T breast
[11] = tested on: TK-10 renal
[12] = tested on: EKVX NSCLC
[13] = tested on: HCT-116 colon
[14] = tested on: NCI-H23 lung
[15] = tested on: COLO 205 colon
[16] = tested on: SR leukemia
[17] = tested on: BT-549 breast
[18] = tested on: OVCAR-5 ovarian
[19] = tested on: OVCAR-4 ovarian
[20] = tested on: T-47D breast
[21] = tested on: MDA-MB-435
[22] = tested on: NCI-H226 lung
[23] = tested on: SK-MEL-5 melanoma
[24] = tested on: OVCAR-8 ovarian
[25] = tested on: SF-539 CNS
[26] = tested on: NCI/ADR-RES ovarian
[27] = tested on: ACHN renal
[28] = tested on: NCI-H460 lung
[29] = tested on: SN12C renal
[30] = tested on: SK-OV-3 ovarian
[31] = tested on: MOLT-4 leukemia
[32] = tested on: K-562 leukemia
[33] = tested on: HOP-62 NSCLC
[34] = tested on: RXF 393 renal
[35] = tested on: HT29 colon
[36] = tested on: NCI-H522 lung
[37] = tested on: SF-295 CNS
[38] = tested on: DU-145 prostate
[39] = tested on: HOP-92 NSCLC
[40] = tested on: 786-0 renal
[41] = tested on: HCT-15 colon
[42] = tested on: CCRF-CEM leukemia
[43] = tested on: MDA-N
[44] = tested on: OVCAR-3 ovarian
[45] = tested on: PC-3 prostate
[46] = tested on: HL-60(TB) leukemia
[47] = tested on: A498 renal
[48] = tested on: M14 melanoma
[49] = tested on: UACC-62 melanoma
[50] = tested on: UACC-257 melanoma
[51] = tested on: U251 CNS
[52] = tested on: KM12 colon
[53] = tested on: UO-31 renal
[54] = tested on: CAKI-1 renal
[55] = tested on: SF-268 CNS
[56] = tested on: SNB-19 CNS
[57] = tested on: MALME-3M melanoma
[58] = tested on: RPMI-8226 leukemia
[59] = tested on: SNB-75 CNS

Measured: TGI

Cc1ccc2sc3ccc(N)cc3c(=O)c2c1
98.3 µM: [39]
78.5 µM: [20]
not listed: [57] | [58] | [59]
> 100 µM: all other assays above

COC(=O)[C@@]1(C)CCC[C@]2(C(=O)O)C3Cc4occc4[C@H](C)[C@@H]3CCC21 (some centres not stated)
91.8 µM: [35]
81 µM: [39]
82 µM: [26]
96.9 µM: [45]
not listed: [3] | [6] | [15] | [19] | [36] | [41] | [50] | [54] | [58] | [59]
> 100 µM: all other assays above

C/C(=N/NC(=S)N1CCN(C(=S)N/N=C(/C)c2ccccn2)CC1)c1ccccn1
41.4 µM: [34]
> 80.7 µM: [23]
> 95.5 µM: [38]
> 76.7 µM: [53]
> 77.6 µM: [59]
99.2 µM: [36]
> 83.8 µM: [10]
> 45.8 µM: [26]
38.5 µM: [48]
57 µM: [55]
> 67.9 µM: [33]
> 58.6 µM: [47]
> 44.1 µM: [27]
> 74.5 µM: [22]
> 81.9 µM: [14]
1.98 µM: [46]
42.5 µM: [20]
not listed: [16]
> 100 µM: all other assays above

N#C/C(C(=O)Nc1ccccc1)=C(/N)N1CCCCC1
not listed: [5] | [10] | [11] | [19] | [34] | [36] | [46] | [47] | [55] | [57]
> 100 µM: all other assays above
